Measured values: patent US20200397673A1, “AN ANTIMICROBIAL COMPOSITION” (Conopco, Inc., d/b/a UNILEVER, priority 2017, published 2020)

Test system: M. furfur ATCC 14521
Assay: Antifungal activity (log reduction) on M. furfur
Assay type: cell-based
Conditions: contact time 24 hr, 10 mg sample in 1000 μL inoculum, 10^5 cells/ml, 32° C.
Description: The above samples were subjected to their anti fungal efficacy on M. furfur as described hereinafter.
M. furfur ATCC 14521 strain was revived from glycerol stock on Modified Dixon agar. Plate was at 30° C. for 72 hrs. Approximately 72 hrs prior to testing, the plate culture was inoculated onto the surface of another sterile Modified Dixon agar plate and incubated at 30° C. for approximately 72 hrs. From second subculture, the optical density of culture is adjusted at 620 nm to give cell strength of 10^7 cfu/ml. The culture was further diluted for 100 times to achieve 10^5 cfu/ml in Pityrosporum broth.
1000 μL of M. furfur inocula were added to the above tubes and a blank sterile 1.5 ml Eppendorf tube (no particles as control), respectively so that the load in each tube is 10^5 cells/ml.
All the samples were kept shaken @120 RPM in a shaker incubator at 32° C. After 24 hours incubation, 10 μL of the samples were withdrawn from the respective 1.5 ml Eppendorf tubes and diluted with 990 μL of Pityrosporum broth. This represents 10^−2 dilution. Serial dilution was performed from the above 24 hours inocula and plated 100 μL of dilution onto modified Dixon plate. Plate dilution 10^−2, 10^−3, 10^−4 and 10^−5. All the plates were kept for incubation at 32° C. for 24-72 hrs. Plate count for all the plates were done.

Substance: zinc pyrithione [Example B]
- Log reduction: 1.58
